The values that follow are results of earlier work, collected in patent publication US10959921B2, “Emulsifying system for microemulsions with high skin tolerance” (Henkel AG & Co. KGaA, priority 2017, dated 2021).

For this series the following is noted: concentrations above about 1.5 wt. %.

Turning to lauryl glucoside, the “Skin tolerance in leave-on applications” value is “skin intolerances”.
